Source: patent US20220324770A1, “NITRIFICATION INHIBITORS” (The University of Melbourne, priority 2019, published 2022)

Legend:
South Johnstone soil = experiment: Soil microcosm incubation (nitrification of applied ammonium), South Johnstone soil; conditions: South Johnstone soil, 25° C., days 21 and 28
Method: (§1) The soil used in this study was collected from four different locations in Victoria, Australia: (i) a wheat cropping soil from Horsham (36° 45′S, 142° 07′ E), (ii) a rotational cropping soil from Dahlen (36° 37′S, 142° 09′ E), (iii) a vegetable growing soil from Clyde (38° 08′S, 145° 20′ E), and (iv) a pasture soil from Terang (38° 15′S, 142° 52′E). In addition, a sugarcane cropping soil from South Johnstone in northern Queensland (17° 34′S, 145° 57′ E) was also studied. The water content of the soil was calculated before commencing each experiment, from samples that were oven-dried to constant weight. The soil's water-filled pore space (WFPS) was in the range 52%-61%, which is within the recommended 50-70% range for microbial activity due to oxygen and nutrient availability (Fichtner, T., et al., Applied Sciences, 2019, 9, 496).
(§2) Soil microcosm incubations were carried out in 250 ml polypropylene specimen containers (Sarstedt, Germany), containing 18.24 g oven dry-weight equivalent of soil. Microcosms were re-wetted and pre-incubated at the test temperature for seven days to revive soil microbial activity. Following pre-incubation, the remaining volume to reach the desired water-filled pore spaces (WFPS %) was applied as one of the following treatment solutions; (NH4)2SO4(Control), (NH4)2SO4+DMPP, or (NH4)2SO4+one of Compounds 1-23. Each treatment was applied in triplicate per soil type, so that n=3 at each time point.
(§3) Treatment solutions were prepared such that each microcosm received (NH4)2SO4 at a rate of 100 mg N per kg soil, Compounds 1-23 at 10 mol % of applied N, or DMPP at one of 1.5, 3.6 or 10 mol % of applied N, referred to as L-DMPP, M-DMPP or H-DMPP respectively.
(§4) The microcosms were incubated for 0, 3, 7, 14, 21 or 28 days, where day 0 samples were extracted following 1-hour incubation post-treatment. Soil microcosms were aerated and moisture levels were replenished based on weight loss every few days throughout the incubation period.
(§5) At the end of each incubation period, soil microcosms were destructively sampled by treatment with 2M KCl (100 mL). After shaking for 1 hour, soil-KCl solutions were filtered (Whatman 42) before storing the filtrates at −20° C. until the conclusion of the experiment. All KCl extracts were then analysed by Segmented Flow Analysis (San++, Skalar, Breda, The Netherlands) for the concentration of nitrogen from ammonium (NH4^+—N) and nitrogen from NO3 and NO2 (NOx^−—N) after appropriate dilutions. Results are reported as the mean of three replicates, errors reported are standard errors of the mean.
(§6) Nitrification calculations were performed as previously reported (Aulakh, M., et al., Biology and Fertility of Soils 2001, 33, 258-263; Mahmood, T., et al., Soil Research 2017, 55, 715-722) without correction for the initial baseline concentrations of NH4^+—N or NO3^− N in the untreated soil. For each treatment nitrified NH4^+—N (%) was calculated according to eqn. 1:
(§7) where [NH4^+—N]0 is the NH4^+—N concentration (in mg N kg^−1 soil) of the soil on day 0 and [NH4^+—N]t is the NH4^+—N concentration (in mg N kg^−1 soil) of the soil at a given time point t.

Horsham soil = experiment: Soil microcosm incubation (nitrification of applied ammonium), Horsham soil
Method: as §1, §2, §3, §4, §5, §6, §7
(§8) NOx^−—N accumulation rates (mg NOx^−—N/kg soil/day) over the 28-day incubation experiments were calculated for each treatment as in the following (eqn. 2):
(§9) [NOx^−—N]t=0 and [NOx^−—N]t=28 are the combined concentrations of nitrite (NO2) and nitrate (NO3) in the soil (in mg N kg^−1 soil) on day 0 and day 28, respectively.

Dahlen soil = experiment: Soil microcosm incubation (nitrification of applied ammonium), Dahlen soil; conditions: for Nitrified NH4+—N (%) Day 3 / Nitrified NH4+—N (%) Day 7 / Nitrified NH4+—N (%) Day 14 / Nitrified NH4+—N (%) Day 21 / Nitrified NH4+—N (%) Day 28: 10 mol %
Method: as §1, §2, §3, §4, §5, §6, §7, §8, §9

[1] = Horsham soil pH 8.8, 25° C., 10 mol %
[2] = Horsham soil pH 8.8, 35° C., 10 mol %
[3] = Table 5, Dahlen soil pH 7.3, 25° C.
[4] = Table 5, Dahlen soil pH 7.3, 35° C.

Structure (SMILES): CCCc1cn(CC(=O)OCC)nn1 [Compound 19, ethyl 2-(4-propyl-1H-1,2,3-triazol-1-yl)-acetate]
- effectiveness among the treatments (NH4+—N retention, NOx−—N growth) (South Johnstone soil): least effective

Structure (SMILES): CCCCc1cn(CCOC)nn1 [Compound 14, 1-(2-methoxyethyl)-4-butyl-1H-1,2,3-triazole]
- Nitrified NH4+—N (%) Day 3 (Horsham soil; Horsham soil pH 8.8, 25° C., inhibitors 10 mol % of applied N): 23.8 ± 3.0%
- Nitrified NH4+—N (%) Day 7 (Horsham soil; [1]): 38.7 ± 5.3%
- Nitrified NH4+—N (%) Day 14 (Horsham soil; [1]): 84.3 ± 5.6%
- Nitrified NH4+—N (%) Day 21 (Horsham soil; [1]): 93.4 ± 6.2%
- Nitrified NH4+—N (%) Day 28 (Horsham soil; [1]): 100 ± 3.2%
- Nitrified NH4+—N (%) Day 3 (Horsham soil; [2]): 13.2 ± 5.4%
- Nitrified NH4+—N (%) Day 7 (Horsham soil; [2]): 15.7 ± 5.7%
- Nitrified NH4+—N (%) Day 14 (Horsham soil; [2]): 39.8 ± 6.6%
- Nitrified NH4+—N (%) Day 21 (Horsham soil; [2]): 83.5 ± 7.2%
- Nitrified NH4+—N (%) Day 28 (Horsham soil; [2]): 79.7 ± 9.4%
- NOx−—N accumulation: effect of temperature (25° C. vs 35° C.) (Horsham soil; Horsham soil, 28-day incubation): lower at the elevated temperature

Structure (SMILES): C#CCNC(=O)Cn1cc(CCC)nn1 [Compound 23, prop-2-yn-1-yl 2-(4-propyl-1H-1,2,3-triazol-1-yl)-acetamide]
- retaining NH4+—N levels by day 28 vs fertilised control (and DMPP) (Dahlen soil; Dahlen soil, 25° C., Table 5 test): performed statistically better
- Nitrified NH4+—N (%) Day 3 (Dahlen soil; Table 5 (further comparative test), Dahlen soil pH 7.3, 25° C.): 4.8 ± 2.9%
- Nitrified NH4+—N (%) Day 7 (Dahlen soil; [3]): 15.7 ± 1.5%
- Nitrified NH4+—N (%) Day 14 (Dahlen soil; [3]): 30.3 ± 0.8%
- Nitrified NH4+—N (%) Day 21 (Dahlen soil; [3]): 35.9 ± 1.2%
- Nitrified NH4+—N (%) Day 28 (Dahlen soil; [3]): 60.5 ± 1.0%
- Nitrified NH4+—N (%) Day 3 (Dahlen soil; [4]): 15.6 ± 6.4%
- Nitrified NH4+—N (%) Day 7 (Dahlen soil; [4]): 8.8 ± 5.6%
- Nitrified NH4+—N (%) Day 14 (Dahlen soil; [4]): 24.0 ± 6.7%
- Nitrified NH4+—N (%) Day 21 (Dahlen soil; [4]): 41.7 ± 4.7%
- Nitrified NH4+—N (%) Day 28 (Dahlen soil; [4]): 64.6 ± 4.9%
